Measurements: patent US20250360180A1, “ECHINOCANDIN COMPOUND, AND PREPARATION METHOD THEREFOR AND USE THEREOF” (Zhejiang University, priority 2022, published 2025)
≈ marks a conversion by molar mass, not a printed value.

System: Candida albicans ATCC 10231
Test: Minimum inhibitory concentration (MIC) by broth microdilution method
Type: cell-based
Details: for MIC value: broth microdilution in MH broth, 37° C., 12 hours, OD600, MIC = lowest concentration that inhibited the growth of more than 90% of the strains; for activity against Candida albicans (in words): summary statement of the MIC experiments
Description: The minimum inhibitory concentration (MIC) values of echinocandin E and echinocandin F were determined by broth microdilution method, and the test strain was Candida albicans ATCC 10231. The MIC value was defined as the lowest antibiotic concentration that inhibited the growth of more than 90% of the strains. Amphotericin B was used as a positive control and echinocandin B as a reference, and each sample was subjected to three parallel experiments.
Candida albicans was cultured in Mueller-Hinton (MH) broth (50 mL 20× Nitrate Salts, 1 mL Trace Elements, and 10.0 g glucose, dissolved in 800 mL ddH2O, adjusted to pH 6.5, fixed to 1 L, added with 16.0 g agar powder, and sterilized at 121° C. for 20 min) (purchased from Hangzhou Basebio Biotechnology Co., Ltd. (Basebio)) and cultured at 37° C. and 180 rpm for 12-16 hours. The fungal solution concentration was controlled to […] by gradient dilution with MH broth.
The sample solution was prepared by dissolving the test samples (amphotericin B, echinocandin B, echinocandin E, echinocandin F) in DMSO to prepare a stock solution with a concentration of 40 μg/ml. An appropriate amount of sterile MH broth medium and the test compounds were added to a 96-well plate, and Candida albicans was quantitatively inoculated so that the total liquid volume in each well was 100 μL. The final concentrations of the compounds were 2, 1.5, 1, 0.8, 0.6, 0.4, 0.2, 0.1, 0.05 and 0 μg/ml, respectively, and DMSO (volume concentration of 5%) was used as a negative control.
The fungal concentration was measured at OD600 using an ELISA reader to determine the MIC value of each sample.

Compound	MIC value	activity against Candida albicans (in words)
echinocandin B [reference compound]	0.4 µg/mL	–
echinocandin H	0.8 µg/mL	good activity
echinocandin E	0.6 µg/mL	good activity
echinocandin G	0.8 µg/mL	good activity
C[C@@H]1[C@H](O)[C@@H](C)/C=C/C=C/C=C/C=C/C=C/C=C/C=C/[C@H](O[C@@H]2O[C@H](C)[C@@H](O)[C@H](N)[C@@H]2O)C[C@@H]2O[C@](O)(C[C@@H](O)C[C@@H](O)[C@H](O)CC[C@@H](O)C[C@@H](O)CC(=O)O[C@H]1C)C[C@H](O)[C@H]2C(=O)O [Amphotericin B, reference compound]	0.2 µg/mL (≈ 0.216 µM)	–
echinocandin F	1.0 µg/mL	good activity
